Results published in PubChem BioAssay (NCI).
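How tested: cells in 96-well plates exposed to compound for 48 hours at five concentrations. At the GI50, growth is halved. At the TGI there is no net growth.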

How the values were obtained:
Experiment in all cases: NCI tumour cell line growth inhibition, 48 h
[1] = system: 786-0 renal
[2] = system: A498 renal
[3] = system: A549 NSCLC
[4] = system: ACHN renal
[5] = system: BT-549 breast
[6] = system: CAKI-1 renal
[7] = system: CCRF-CEM leukemia
[8] = system: COLO 205 colon
[9] = system: DU-145 prostate
[10] = system: EKVX NSCLC
[11] = system: HCC-2998 colon
[12] = system: HCT-116 colon
[13] = system: HCT-15 colon
[14] = system: HL-60(TB) leukemia
[15] = system: HOP-62 NSCLC
[16] = system: HOP-92 NSCLC
[17] = system: HS 578T breast
[18] = system: HT29 colon
[19] = system: IGROV1 ovarian
[20] = system: K-562 leukemia
[21] = system: KM12 colon
[22] = system: LOX IMVI melanoma
[23] = system: M14 melanoma
[24] = system: MALME-3M melanoma
[25] = system: MCF7 breast
[26] = system: MDA-MB-231 breast
[27] = system: MDA-MB-435
[28] = system: MOLT-4 leukemia
[29] = system: NCI-H226 lung
[30] = system: NCI-H23 lung
[31] = system: NCI-H460 lung
[32] = system: NCI-H522 lung
[33] = system: NCI/ADR-RES ovarian
[34] = system: OVCAR-3 ovarian
[35] = system: OVCAR-4 ovarian
[36] = system: OVCAR-5 ovarian
[37] = system: OVCAR-8 ovarian
[38] = system: PC-3 prostate
[39] = system: RPMI-8226 leukemia
[40] = system: RXF 393 renal
[41] = system: SF-268 CNS
[42] = system: SF-295 CNS
[43] = system: SF-539 CNS
[44] = system: SK-MEL-2 melanoma
[45] = system: SK-MEL-28 melanoma
[46] = system: SK-MEL-5 melanoma
[47] = system: SK-OV-3 ovarian
[48] = system: SN12C renal
[49] = system: SNB-19 CNS
[50] = system: SNB-75 CNS
[51] = system: SR leukemia
[52] = system: SW-620 colon
[53] = system: T-47D breast
[54] = system: TK-10 renal
[55] = system: U251 CNS
[56] = system: UACC-257 melanoma
[57] = system: UACC-62 melanoma
[58] = system: UO-31 renal

COc1ccc(C(=O)c2cc(OC)c(OC)c(OC)c2)cc1OC(=O)C(Cl)(Cl)Cl
GI50 [1]: 587 nM
TGI [1]: > 100000 nM
GI50 [2]: 1970 nM
TGI [2]: 7180 nM
GI50 [3]: 154 nM
TGI [3]: > 100000 nM
GI50 [4]: 32.9 nM
TGI [4]: > 100000 nM
GI50 [5]: 11.8 nM
TGI [5]: 880 nM
GI50 [6]: 140 nM
TGI [6]: > 100000 nM
GI50 [7]: < 18.3 nM
TGI [7]: > 100000 nM
GI50 [8]: 1310 nM
TGI [8]: 23200 nM
GI50 [9]: 28.4 nM
TGI [9]: > 100000 nM
GI50 [10]: 3160 nM
TGI [10]: > 100000 nM
GI50 [11]: 46.2 nM
TGI [11]: > 100000 nM
GI50 [12]: 28.4 nM
TGI [12]: > 100000 nM
GI50 [13]: < 10 nM
TGI [13]: > 100000 nM
GI50 [14]: < 10 nM
TGI [14]: < 19.1 nM
GI50 [15]: 83 nM
TGI [15]: > 100000 nM
GI50 [16]: 470 nM
TGI [16]: > 100000 nM
GI50 [17]: 18 nM
TGI [17]: > 100000 nM
GI50 [18]: 2000 nM
TGI [18]: > 100000 nM
GI50 [19]: 312 nM
TGI [19]: > 100000 nM
GI50 [20]: < 10 nM
TGI [20]: > 100000 nM
GI50 [21]: < 10 nM
TGI [21]: > 100000 nM
GI50 [22]: < 13.4 nM
TGI [22]: > 100000 nM
GI50 [23]: < 10 nM
TGI [23]: > 100000 nM
TGI [24]: > 100000 nM
GI50 [25]: 27.2 nM
TGI [25]: > 100000 nM
GI50 [26]: 158 nM
TGI [26]: > 100000 nM
GI50 [27]: < 10 nM
GI50 [28]: < 19.9 nM
TGI [28]: > 50200 nM
GI50 [29]: 15400 nM
TGI [29]: > 100000 nM
GI50 [30]: 62.7 nM
TGI [30]: > 100000 nM
GI50 [31]: 38.8 nM
TGI [31]: > 100000 nM
GI50 [32]: 16.9 nM
TGI [32]: > 100000 nM
GI50 [33]: < 11 nM
TGI [33]: > 100000 nM
GI50 [34]: 27.8 nM
TGI [34]: > 100000 nM
GI50 [35]: 122 nM
TGI [35]: > 100000 nM
GI50 [36]: 4490 nM
TGI [36]: > 100000 nM
GI50 [37]: 44.1 nM
TGI [37]: > 100000 nM
GI50 [38]: < 10.6 nM
TGI [38]: > 100000 nM
GI50 [39]: < 20.2 nM
TGI [39]: 27200 nM
GI50 [40]: 33.7 nM
TGI [40]: > 100000 nM
GI50 [41]: 73.6 nM
TGI [41]: > 100000 nM
GI50 [42]: 79.2 nM
TGI [42]: > 100000 nM
GI50 [43]: 13.4 nM
TGI [43]: 56 nM
GI50 [44]: 85300 nM
TGI [44]: > 100000 nM
GI50 [45]: 25100 nM
TGI [45]: > 100000 nM
GI50 [46]: 32.5 nM
TGI [46]: 329 nM
GI50 [47]: 76.2 nM
TGI [47]: > 100000 nM
GI50 [48]: 57.9 nM
TGI [48]: > 100000 nM
GI50 [49]: 45.2 nM
TGI [49]: > 100000 nM
GI50 [50]: < 10 nM
TGI [50]: > 100000 nM
GI50 [51]: < 10 nM
TGI [51]: > 100000 nM
GI50 [52]: < 10 nM
TGI [52]: > 100000 nM
GI50 [53]: 2400 nM
TGI [53]: > 100000 nM
GI50 [54]: 34100 nM
TGI [54]: > 100000 nM
GI50 [55]: 38.4 nM
TGI [55]: > 100000 nM
GI50 [56]: > 100000 nM
TGI [56]: > 100000 nM
GI50 [57]: 628 nM
TGI [57]: > 100000 nM
GI50 [58]: 540 nM
TGI [58]: > 100000 nM
